Reference: ChEMBL document CHEMBL1146256, “ATP-conjugated peptide inhibitors for calmodulin-dependent protein kinase II” (Bioorg Med Chem Lett, 2007)
Starred links: 1 amine or outer side, 2 acyl side, 3 side chain; linkers in the order of their positions; H or OH if unused. Non-standard residues stand in square brackets, D forms with d. Residues, ends and D or L forms follow the SMILES beside them. ξ: configuration not given here. *: point of attachment. X1 = Nc1ncnc2c1ncn2[C@@H]1O[C@H](COP(=O)(O)OP(=O)(O)OP(=O)(O)OC2CC(=O)N(CCOCCOCCOCCN3C(=O)CC(S[C@@H](N[*:1])C(=O)[*:2])C3=O)C2=O)[C@@H](O)[C@H]1O; Biotin = O=C1N[C@H]2[C@H](CS[C@H]2CCCCC(=O)*)N1; ξF = NC(Cc1ccccc1)C(=O)O

Experiment: Inhibition of CaMK2
Set-up: species or system Homo sapiens

| Compound | IC50 |
| --- | --- |
| CC(C)C[C@H](NC(=O)[C@H](C)NC(=O)[C@H](CC(=O)O)NC(=O)[C@H](Cc1ccccc1)NCC(=O)[C@H](CNC(=O)CCOP(=O)(O)OP(=O)(O)OP(=O)(O)OC[C@@H]1O[C@H](n2cnc3c(N)ncnc32)[C@@H](O)[C@H]1O)NC(=O)[C@H](CCC(=O)O)NC(=O)[C@H](CCC(N)=O)NC(=O)[C@H](CCCNC(=N)N)NC(=O)[C@H](CCCNC(=N)N)NC(=O)[C@H](CC(C)C)NC(=O)[C@H](CCCCN)NC(=O)[C@H](CCCCN)NC(=O)[C@H](CCCCN)NC(=O)CCCC[C@@H]1SC[C@@H]2NC(=O)N[C@@H]21)C(=O)O | 22 nM |
| CC(C)C[C@H](NC(=O)[C@H](C)NC(=O)[C@H](CCCCN)NC(=O)[C@H](CCCCN)NC(=O)CCCC[C@@H]1SC[C@@H]2NC(=O)N[C@@H]21)C(=O)N[C@@H](CCCNC(=N)N)C(=O)N[C@@H](CCCNC(=N)N)C(=O)N[C@@H](CCC(N)=O)C(=O)N[C@@H](CCC(=O)O)C(=O)N[C@@H](C)C(=O)NCC(=O)N[C@@H](CC(=O)O)C(=O)N[C@@H](C)C(=O)N[C@@H](CC(C)C)C(=O)N[C@H](SC1CC(=O)N(CCOCCOCCOCCN2C(=O)CC(OP(=O)(O)OP(=O)(O)OP(=O)(O)OC[C@H]3O[C@@H](n4cnc5c(N)ncnc54)[C@H](O)[C@@H]3O)C2=O)C1=O)C(=O)O (some centres undefined) (Biotin-KKALRRQEAGDAL[X1]-OH) | 18000 nM |
| CC(C)C[C@H](NC(=O)[C@H](C)NC(=O)[C@H](CC(=O)O)NC(=O)C(Cc1ccccc1)NC(=O)[C@H](C)NC(=O)[C@H](CCC(=O)O)NC(=O)[C@H](CCC(N)=O)NC(=O)[C@H](CCCNC(=N)N)NC(=O)[C@H](CCCNC(=N)N)NC(=O)[C@H](CC(C)C)NC(=O)[C@H](CCCCN)NC(=O)[C@H](CCCCN)NC(=O)[C@H](CCCCN)NC(=O)CCCC[C@@H]1SC[C@@H]2NC(=O)N[C@@H]21)C(=O)N[C@H](SC1CC(=O)N(CCOCCOCCOCCN2C(=O)CC(OP(=O)(O)OP(=O)(O)OP(=O)(O)OC[C@H]3O[C@@H](n4cnc5c(N)ncnc54)[C@H](O)[C@@H]3O)C2=O)C1=O)C(=O)O (some centres undefined) (Biotin-KKKLRRQEA[ξF]DAL[X1]-OH) | 181 nM |
| H-KKALRRQEAVDAL-OH | 320 nM |

More lines, in order of falling IC50, values ahead:

| IC50 | Compound |
| --- | --- |
| 4000 nM | H-KKALRRQEAGDAL-OH |
| 1320 nM | CC(C)C[C@H](NC(=O)[C@H](C)NC(=O)[C@H](CC(=O)O)NC(=O)CNCC(=O)[C@H](CNC(=O)CCOP(=O)(O)OP(=O)(O)OP(=O)(O)OC[C@@H]1O[C@H](n2cnc3c(N)ncnc32)[C@@H](O)[C@H]1O)NC(=O)[C@H](CCC(=O)O)NC(=O)[C@H](CCC(N)=O)NC(=O)[C@H](CCCNC(=N)N)NC(=O)[C@H](CCCNC(=N)N)NC(=O)[C@H](CC(C)C)NC(=O)[C@H](C)NC(=O)[C@H](CCCCN)NC(=O)[C@H](CCCCN)NC(=O)CCCC[C@@H]1SC[C@@H]2NC(=O)N[C@@H]21)C(=O)O |
| 305 nM | CC(C)C[C@H](NC(=O)[C@H](C)NC(=O)[C@H](CCCCN)NC(=O)[C@H](CCCCN)NC(=O)CCCC[C@@H]1SC[C@@H]2NC(=O)N[C@@H]21)C(=O)N[C@@H](CCCNC(=N)N)C(=O)N[C@@H](CCCNC(=N)N)C(=O)N[C@@H](CCC(N)=O)C(=O)N[C@@H](CCC(=O)O)C(=O)N[C@@H](C)C(=O)N[C@H](C(=O)N[C@@H](CC(=O)O)C(=O)N[C@@H](C)C(=O)N[C@@H](CC(C)C)C(=O)N[C@H](SC1CC(=O)N(CCOCCOCCOCCN2C(=O)CC(OP(=O)(O)OP(=O)(O)OP(=O)(O)OC[C@H]3O[C@@H](n4cnc5c(N)ncnc54)[C@H](O)[C@@H]3O)C2=O)C1=O)C(=O)O)C(C)C (some centres undefined) (Biotin-KKALRRQEAVDAL[X1]-OH) |
| 76 nM | H-KKKLRRQEAFDAL-OH |
| 67 nM | CC(C)C[C@H](NC(=O)[C@H](C)NC(=O)[C@H](CC(=O)O)NC(=O)[C@@H](NCC(=O)[C@H](CNC(=O)CCOP(=O)(O)OP(=O)(O)OP(=O)(O)OC[C@@H]1O[C@H](n2cnc3c(N)ncnc32)[C@@H](O)[C@H]1O)NC(=O)[C@H](CCC(=O)O)NC(=O)[C@H](CCC(N)=O)NC(=O)[C@H](CCCNC(=N)N)NC(=O)[C@H](CCCNC(=N)N)NC(=O)[C@H](CC(C)C)NC(=O)[C@H](C)NC(=O)[C@H](CCCCN)NC(=O)[C@H](CCCCN)NC(=O)CCCC[C@@H]1SC[C@@H]2NC(=O)N[C@@H]21)C(C)C)C(=O)O |
